From US11116735B2, “Use of substituted benzylideneguanidine derivatives as synergists for polymyxin antibiotics” (GUANGZHOU INSIGHTER BIOTECHNOLOGY CO., LTD., priority 2015, dated 2021)

Columns and labels:
[1] = tested on: E. coli 3B-24; test: MIC by doubling dilution, colistin sulfate-susceptible E. coli 3B-24; assay type: cell-based, Escherichia coli; settings: for In vitro minimum inhibitory concentration (MIC) of the substance alone: E. coli 3B-24, colistin sulfate-susceptible, derivatives as hydrochlorides; for In vitro MIC of colistin sulfate in the presence of the substituted benzylideneguanidine derivative: E. coli 3B-24, culture comprised 20.0 ppm of the derivative (hydrochloride), colistin sulfate serially diluted
[2] = tested on: E. coli 3H-4; test: MIC by doubling dilution, colistin sulfate-resistant E. coli 3H-4; settings: for In vitro minimum inhibitory concentration (MIC) of the substance alone: E. coli 3H-4, colistin sulfate-resistant, derivatives as hydrochlorides; for In vitro MIC of colistin sulfate in the presence of the substituted benzylideneguanidine derivative: E. coli 3H-4, resistant, culture comprised 20.0 ppm of the derivative (hydrochloride)
Description: (§1) In vitro minimum inhibitory concentrations of colistin sulfate against the strains where the cultures respectively comprised 20.0 ppm of the substituted benzylideneguanidine derivatives were also measured.

[3] = tested on: E. coli 2S-19; test: MIC by doubling dilution, colistin sulfate-susceptible E. coli 2S-19; assay type: cell-based, Escherichia coli; settings: for In vitro minimum inhibitory concentration (MIC) of the substance alone: E. coli 2S-19, colistin sulfate-susceptible, derivatives as hydrochlorides; for In vitro MIC of colistin sulfate in the presence of the substituted benzylideneguanidine derivative: E. coli 2S-19, culture comprised 20.0 ppm of the derivative (hydrochloride), colistin sulfate serially diluted
[4] = tested on: E. coli 4D-6; test: MIC by doubling dilution, colistin sulfate-resistant E. coli 4D-6; settings: for In vitro minimum inhibitory concentration (MIC) of the substance alone: E. coli 4D-6, colistin sulfate-resistant, derivatives as hydrochlorides; for In vitro MIC of colistin sulfate in the presence of the substituted benzylideneguanidine derivative: E. coli 4D-6, resistant, culture comprised 20.0 ppm of the derivative (hydrochloride)
Description: as §1

[5] = tested on: E. coli 5W-7; test: MIC by doubling dilution, colistin sulfate-susceptible E. coli 5W-7; assay type: cell-based, Escherichia coli; settings: for In vitro minimum inhibitory concentration (MIC) of the substance alone: E. coli 5W-7, colistin sulfate-susceptible, derivatives as hydrochlorides; for In vitro MIC of colistin sulfate in the presence of the substituted benzylideneguanidine derivative: E. coli 5W-7, culture comprised 20.0 ppm of the derivative (hydrochloride), colistin sulfate serially diluted
[6] = tested on: E. coli 2G-7; test: MIC by doubling dilution, colistin sulfate-resistant E. coli 2G-7; settings: for In vitro minimum inhibitory concentration (MIC) of the substance alone: E. coli 2G-7, colistin sulfate-resistant, derivatives as hydrochlorides; for In vitro MIC of colistin sulfate in the presence of the substituted benzylideneguanidine derivative: E. coli 2G-7, resistant, culture comprised 20.0 ppm of the derivative (hydrochloride)
Description: as §1

[7] = tested on: weanling piglets; test: Synergy of derivatives and colistin sulfate in the feed for weanling piglets; assay type: in vivo, Duroc×Landrace×Large crossbred lean weanling piglets; settings: creep feed with 20 ppm colistin sulfate and 150 ppm derivative (hydrochloride), ten days
Description: 90 28-day-aged Duroc×Landrace×Large crossbred lean weanling piglets similar in weight were divided into 9 groups, 10 piglets in each group. For each group, colistin sulfate and/or various substituted benzylideneguanidine derivatives were added into the antibiotic-free creep feed. The piglets were given ad libitum access to feed and water during the experiment. Weight gain, feed efficiency and diarrhea rate of each group within ten days were recorded.

[8] = tested on: E. coli 5F-1; test: MIC by doubling dilution, colistin sulfate-resistant E. coli 5F-1; settings: for In vitro minimum inhibitory concentration (MIC) of the substance alone: E. coli 5F-1, colistin sulfate-resistant, derivatives as hydrochlorides; for In vitro MIC of colistin sulfate in the presence of the substituted benzylideneguanidine derivative: E. coli 5F-1, resistant, culture comprised 20.0 ppm of the derivative (hydrochloride)
Description: as §1

[9] = tested on: E. coli 3Y-9; test: MIC by doubling dilution, colistin sulfate-susceptible E. coli 3Y-9; assay type: cell-based, Escherichia coli; settings: for In vitro minimum inhibitory concentration (MIC) of the substance alone: E. coli 3Y-9, colistin sulfate-susceptible, derivatives as hydrochlorides; for In vitro MIC of colistin sulfate in the presence of the substituted benzylideneguanidine derivative: E. coli 3Y-9, culture comprised 20.0 ppm of the derivative (hydrochloride), colistin sulfate serially diluted

COc1ccc(C=NN=C(N)NN=Cc2ccc(OC)cc2)cc1 [Compound 1]
In vitro minimum inhibitory concentration (MIC) of the substance alone [1]: >800 ppm | In vitro MIC of colistin sulfate in the presence of the substituted benzylideneguanidine derivative [1]: 1.00 ppm | In vitro minimum inhibitory concentration (MIC) of the substance alone [2]: >800 ppm | In vitro MIC of colistin sulfate in the presence of the substituted benzylideneguanidine derivative [2]: 2.0 ppm | In vitro minimum inhibitory concentration (MIC) of the substance alone [3]: >800 ppm | In vitro MIC of colistin sulfate in the presence of the substituted benzylideneguanidine derivative [3]: 1.00 ppm | In vitro minimum inhibitory concentration (MIC) of the substance alone [4]: >800 ppm | In vitro MIC of colistin sulfate in the presence of the substituted benzylideneguanidine derivative [4]: 4.0 ppm | In vitro minimum inhibitory concentration (MIC) of the substance alone [5]: >800 ppm | In vitro MIC of colistin sulfate in the presence of the substituted benzylideneguanidine derivative [5]: 0.50 ppm | In vitro minimum inhibitory concentration (MIC) of the substance alone [6]: >800 ppm | In vitro MIC of colistin sulfate in the presence of the substituted benzylideneguanidine derivative [6]: 1.0 ppm | Average daily weight gain [7]: 243 g | Diarrhea rate [7]: 18% | Feed conversion ratio [7]: 1.529 | In vitro minimum inhibitory concentration (MIC) of the substance alone [8]: >800 ppm | In vitro MIC of colistin sulfate in the presence of the substituted benzylideneguanidine derivative [8]: 2.0 ppm | In vitro minimum inhibitory concentration (MIC) of the substance alone [9]: >800 ppm | In vitro MIC of colistin sulfate in the presence of the substituted benzylideneguanidine derivative [9]: 1.00 ppm

N=C(N/N=C/c1ccc(Cl)cc1)N/N=C/c1ccc(Cl)cc1 [Compound 8]
In vitro minimum inhibitory concentration (MIC) of the substance alone [1]: >800 ppm | In vitro MIC of colistin sulfate in the presence of the substituted benzylideneguanidine derivative [1]: 1.00 ppm | In vitro minimum inhibitory concentration (MIC) of the substance alone [2]: >800 ppm | In vitro MIC of colistin sulfate in the presence of the substituted benzylideneguanidine derivative [2]: 4 ppm | In vitro minimum inhibitory concentration (MIC) of the substance alone [3]: >800 ppm | In vitro MIC of colistin sulfate in the presence of the substituted benzylideneguanidine derivative [3]: 1.00 ppm | In vitro minimum inhibitory concentration (MIC) of the substance alone [4]: >800 ppm | In vitro MIC of colistin sulfate in the presence of the substituted benzylideneguanidine derivative [4]: 16 ppm | In vitro minimum inhibitory concentration (MIC) of the substance alone [5]: >800 ppm | In vitro MIC of colistin sulfate in the presence of the substituted benzylideneguanidine derivative [5]: 0.50 ppm | In vitro minimum inhibitory concentration (MIC) of the substance alone [6]: >800 ppm | In vitro MIC of colistin sulfate in the presence of the substituted benzylideneguanidine derivative [6]: 4 ppm | Average daily weight gain [7]: 220 g | Diarrhea rate [7]: 33% | Feed conversion ratio [7]: 1.608 | In vitro minimum inhibitory concentration (MIC) of the substance alone [8]: >800 ppm | In vitro MIC of colistin sulfate in the presence of the substituted benzylideneguanidine derivative [8]: 8 ppm | In vitro minimum inhibitory concentration (MIC) of the substance alone [9]: >800 ppm | In vitro MIC of colistin sulfate in the presence of the substituted benzylideneguanidine derivative [9]: 1.00 ppm

N=C(NN=Cc1ccc(OCc2ccccc2)cc1)NN=Cc1ccc(OCc2ccccc2)cc1 [Compound 7]
In vitro minimum inhibitory concentration (MIC) of the substance alone [1]: >800 ppm | In vitro MIC of colistin sulfate in the presence of the substituted benzylideneguanidine derivative [1]: 2.00 ppm | In vitro minimum inhibitory concentration (MIC) of the substance alone [2]: >800 ppm | In vitro MIC of colistin sulfate in the presence of the substituted benzylideneguanidine derivative [2]: 8 ppm | In vitro minimum inhibitory concentration (MIC) of the substance alone [3]: >800 ppm | In vitro MIC of colistin sulfate in the presence of the substituted benzylideneguanidine derivative [3]: 2.00 ppm | In vitro minimum inhibitory concentration (MIC) of the substance alone [4]: >800 ppm | In vitro MIC of colistin sulfate in the presence of the substituted benzylideneguanidine derivative [4]: 32 ppm | In vitro minimum inhibitory concentration (MIC) of the substance alone [5]: >800 ppm | In vitro MIC of colistin sulfate in the presence of the substituted benzylideneguanidine derivative [5]: 1.00 ppm | In vitro minimum inhibitory concentration (MIC) of the substance alone [6]: >800 ppm | In vitro MIC of colistin sulfate in the presence of the substituted benzylideneguanidine derivative [6]: 8 ppm | Average daily weight gain [7]: 240 g | Diarrhea rate [7]: 16% | Feed conversion ratio [7]: 1.576 | In vitro minimum inhibitory concentration (MIC) of the substance alone [8]: >800 ppm | In vitro MIC of colistin sulfate in the presence of the substituted benzylideneguanidine derivative [8]: 8 ppm | In vitro minimum inhibitory concentration (MIC) of the substance alone [9]: >800 ppm | In vitro MIC of colistin sulfate in the presence of the substituted benzylideneguanidine derivative [9]: 2.00 ppm

CCC(CC)Oc1ccc(C=NN=C(N)NN=Cc2ccc(OC(CC)CC)cc2)cc1 [Compound 5]
In vitro minimum inhibitory concentration (MIC) of the substance alone [1]: >800 ppm | In vitro MIC of colistin sulfate in the presence of the substituted benzylideneguanidine derivative [1]: 2.00 ppm | In vitro minimum inhibitory concentration (MIC) of the substance alone [2]: >800 ppm | In vitro MIC of colistin sulfate in the presence of the substituted benzylideneguanidine derivative [2]: 8 ppm | In vitro minimum inhibitory concentration (MIC) of the substance alone [3]: >800 ppm | In vitro MIC of colistin sulfate in the presence of the substituted benzylideneguanidine derivative [3]: 1.00 ppm | In vitro minimum inhibitory concentration (MIC) of the substance alone [4]: >800 ppm | In vitro MIC of colistin sulfate in the presence of the substituted benzylideneguanidine derivative [4]: 32 ppm | In vitro minimum inhibitory concentration (MIC) of the substance alone [5]: >800 ppm | In vitro MIC of colistin sulfate in the presence of the substituted benzylideneguanidine derivative [5]: 1.00 ppm | In vitro minimum inhibitory concentration (MIC) of the substance alone [6]: >800 ppm | In vitro MIC of colistin sulfate in the presence of the substituted benzylideneguanidine derivative [6]: 8 ppm | Average daily weight gain [7]: 231 g | Diarrhea rate [7]: 25% | Feed conversion ratio [7]: 1.565 | In vitro minimum inhibitory concentration (MIC) of the substance alone [8]: >800 ppm | In vitro MIC of colistin sulfate in the presence of the substituted benzylideneguanidine derivative [8]: 16 ppm | In vitro minimum inhibitory concentration (MIC) of the substance alone [9]: >800 ppm | In vitro MIC of colistin sulfate in the presence of the substituted benzylideneguanidine derivative [9]: 2.00 ppm

NC(=NN=Cc1ccc(C(F)(F)F)cc1)NN=Cc1ccc(C(F)(F)F)cc1 [Compound 14]
In vitro minimum inhibitory concentration (MIC) of the substance alone [1]: >800 ppm | In vitro MIC of colistin sulfate in the presence of the substituted benzylideneguanidine derivative [1]: 1.00 ppm | In vitro minimum inhibitory concentration (MIC) of the substance alone [2]: >800 ppm | In vitro MIC of colistin sulfate in the presence of the substituted benzylideneguanidine derivative [2]: 8 ppm | In vitro minimum inhibitory concentration (MIC) of the substance alone [3]: >800 ppm | In vitro MIC of colistin sulfate in the presence of the substituted benzylideneguanidine derivative [3]: 1.00 ppm | In vitro minimum inhibitory concentration (MIC) of the substance alone [4]: >800 ppm | In vitro MIC of colistin sulfate in the presence of the substituted benzylideneguanidine derivative [4]: 32 ppm | In vitro minimum inhibitory concentration (MIC) of the substance alone [5]: >800 ppm | In vitro MIC of colistin sulfate in the presence of the substituted benzylideneguanidine derivative [5]: 0.50 ppm | In vitro minimum inhibitory concentration (MIC) of the substance alone [6]: >800 ppm | In vitro MIC of colistin sulfate in the presence of the substituted benzylideneguanidine derivative [6]: 16 ppm | In vitro minimum inhibitory concentration (MIC) of the substance alone [8]: >800 ppm | In vitro MIC of colistin sulfate in the presence of the substituted benzylideneguanidine derivative [8]: 32 ppm | In vitro minimum inhibitory concentration (MIC) of the substance alone [9]: >800 ppm | In vitro MIC of colistin sulfate in the presence of the substituted benzylideneguanidine derivative [9]: 1.00 ppm

CCSc1ccc(C=NNC(=N)NN=Cc2ccc(SCC)cc2)cc1 [Compound 9]
In vitro minimum inhibitory concentration (MIC) of the substance alone [1]: >800 ppm | In vitro MIC of colistin sulfate in the presence of the substituted benzylideneguanidine derivative [1]: 1.00 ppm | In vitro minimum inhibitory concentration (MIC) of the substance alone [2]: >800 ppm | In vitro MIC of colistin sulfate in the presence of the substituted benzylideneguanidine derivative [2]: 4 ppm | In vitro minimum inhibitory concentration (MIC) of the substance alone [3]: >800 ppm | In vitro MIC of colistin sulfate in the presence of the substituted benzylideneguanidine derivative [3]: 1.00 ppm | In vitro minimum inhibitory concentration (MIC) of the substance alone [4]: >800 ppm | In vitro MIC of colistin sulfate in the presence of the substituted benzylideneguanidine derivative [4]: 16 ppm | In vitro minimum inhibitory concentration (MIC) of the substance alone [5]: >800 ppm | In vitro MIC of colistin sulfate in the presence of the substituted benzylideneguanidine derivative [5]: 0.50 ppm | In vitro minimum inhibitory concentration (MIC) of the substance alone [6]: >800 ppm | In vitro MIC of colistin sulfate in the presence of the substituted benzylideneguanidine derivative [6]: 4 ppm | In vitro minimum inhibitory concentration (MIC) of the substance alone [8]: >800 ppm | In vitro MIC of colistin sulfate in the presence of the substituted benzylideneguanidine derivative [8]: 8 ppm | In vitro minimum inhibitory concentration (MIC) of the substance alone [9]: >800 ppm | In vitro MIC of colistin sulfate in the presence of the substituted benzylideneguanidine derivative [9]: 1.00 ppm
